Measurements published in patent publication US20080312298A1, “Methods for Identification of Modulators of Carm1 Methyl Transferase Activity” (priority 2007, published 2008).

Biological target: T1, CARM1 (Homo sapiens, UniProt Q86X55)
T1 construct: made in house; host or cells: E. coli
T1 sequence (Q86X55 1-608): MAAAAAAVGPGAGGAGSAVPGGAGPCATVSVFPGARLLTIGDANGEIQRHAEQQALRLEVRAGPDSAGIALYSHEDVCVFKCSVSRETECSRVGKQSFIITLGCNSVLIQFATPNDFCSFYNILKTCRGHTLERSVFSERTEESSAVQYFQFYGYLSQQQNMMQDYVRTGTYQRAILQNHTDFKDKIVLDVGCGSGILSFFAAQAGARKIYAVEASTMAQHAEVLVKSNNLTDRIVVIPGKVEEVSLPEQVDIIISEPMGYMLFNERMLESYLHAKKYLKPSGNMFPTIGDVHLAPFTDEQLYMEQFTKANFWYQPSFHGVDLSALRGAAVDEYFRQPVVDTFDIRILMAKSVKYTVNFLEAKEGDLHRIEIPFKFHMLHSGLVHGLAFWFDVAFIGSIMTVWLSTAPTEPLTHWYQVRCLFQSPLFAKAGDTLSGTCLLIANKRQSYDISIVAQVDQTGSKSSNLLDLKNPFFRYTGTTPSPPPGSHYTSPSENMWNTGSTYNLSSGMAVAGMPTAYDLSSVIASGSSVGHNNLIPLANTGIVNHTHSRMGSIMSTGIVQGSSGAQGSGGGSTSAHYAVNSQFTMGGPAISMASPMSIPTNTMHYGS
Assay: CARM1 biochemical assay (scintillation proximity assay, SPA)
Excerpt: CARM1 biochemical Assay. (e.g. for Determining IC50 Values).
A fusion protein of CARM1 to MBP (Maltose Binding protein), expressed and purified from E. coli, was used to methylate peptides derived from either the N-terminus of histone H3 (acetyl-STGGKAPRKQLATKAARK-biotin) or from PABP1 (acetyl-[…]-biotin). The H3 peptide has two residues R17 and R26 that have been reported to be methylated by CARM1 (Brandon et al., Biochemistry, 2001, 40(19):5747-5756). The PABP1 peptide also contains two arginine residues, R455 and R460, similarly methylated by CARM1 (Lee and Bedford, EMBO Rep. 2002, 3(3):268-73). The methylation reaction was conducted in the presence of tritiated S-Adenosyl-L-Methionine (3H-SAM), 1 μg MBP-CARM1, 250 nM peptide substrate, and assay buffer (50 mM Tris pH 8.0, 0.03% BSA, 3 mM DTT). The reaction was allowed to proceed at room temperature for 75 minutes before being stopped by Stop buffer (25 mM Tris pH 7.4, 100 mM EDTA, 1% Tween 20) and Streptavidin-coated SPA beads (2 mg/ml) (GE Healthcare). The beads were allowed to settle overnight before the signal was counted in a TOPCOUNT. The final SAM concentration in the reaction and the ratio of tritiated to unlabelled SAM was adjusted to give a good signal/noise. […]

- mode of inhibition with respect to SAM: SAM competitive
- IC50 (at saturating SAM concentrations): low micromolar
SMILES: CNC[C@H](O)c1cccc(O)c1
